# Results from patent US20130252890A1, “6,7-DIHYDRO-5H-BENZO[7]ANNULENE DERIVATIVES, PROCESS FOR PREPARATION THEREOF, PHARMACEUTICAL PREPARATIONS COMPRISING THEM, AND THE USE THEREOF FOR PRODUCTION OF MEDICAMENTS” (BAYER INTELLECTUAL PROPERTY GMBH, priority 2010, published 2013).
# pIC50: −log10 of the molar value.
# Key:
# [1] = biological target: T1, oestrogen receptor (ER) (Homo sapiens, UniProt P03372); assay: Anti-oestrogenic action in MVLN cells (inhibition of estradiol-induced luciferase); format: cell-based; conditions: inhibition of estradiol-induced luciferase signal, value of Ex. 44 is a mean value, read-out: Antioestrogenic action in vitro: MVLN transactivation antagonism IC50
# T1 construct: These MVLN cells express, along with the functional oestrogen receptor (ER), a reporter construct; endogenous in cells; host or cells: MVLN cells (MCF7 derivative carrying a luciferase reporter construct)
# T1 sequence (P03372 1-595): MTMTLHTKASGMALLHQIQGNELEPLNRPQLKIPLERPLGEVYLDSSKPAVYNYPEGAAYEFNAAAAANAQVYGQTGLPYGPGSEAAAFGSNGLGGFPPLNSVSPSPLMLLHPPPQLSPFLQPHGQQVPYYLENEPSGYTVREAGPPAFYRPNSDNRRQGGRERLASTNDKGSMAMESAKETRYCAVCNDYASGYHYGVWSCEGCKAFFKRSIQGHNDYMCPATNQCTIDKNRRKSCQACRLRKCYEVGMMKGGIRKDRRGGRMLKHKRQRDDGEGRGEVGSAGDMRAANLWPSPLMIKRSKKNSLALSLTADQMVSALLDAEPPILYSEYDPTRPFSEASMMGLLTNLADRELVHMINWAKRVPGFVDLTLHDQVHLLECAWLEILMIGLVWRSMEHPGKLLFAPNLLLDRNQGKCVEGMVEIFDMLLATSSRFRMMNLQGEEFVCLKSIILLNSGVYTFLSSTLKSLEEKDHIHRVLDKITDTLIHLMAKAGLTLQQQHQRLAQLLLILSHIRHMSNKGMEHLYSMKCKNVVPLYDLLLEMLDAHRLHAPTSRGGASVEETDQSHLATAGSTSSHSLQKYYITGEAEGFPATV
# Method in brief: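 Inhibition of estradiol-driven luciferase expression was measured with compounds co-applied alongside oestrogen. Reporter system: MCF7-derived MVLN cells expressing endogenous functional ER and an ER-responsive luciferase construct.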
# [2] = system: uterus; assay: Anti-uterus growth test in the adult rat; conditions: sc, 72 h; ovariectomized adult rat, s.c. 3 days with 1.5 μg/kg/day 17β-estradiol; inhibition of uterus growth; value of 44 is a mean of two measurements; read-out: anti-oestrogenic activity in vivo in % at a dose of 0.3 mg/kg (rat)
# Excerpt: The uterus of oestrogen-substituted rats can be used as a test model for detecting a direct action of substances with anti-oestrogenic properties. The parameter of oestrogenic action is estradiol-induced uterus growth in rats, which is inhibited by simultaneous administration of a substance with anti-oestrogenic action. The experimental animals (n=5-6 animals/group) were ovariectomized before the start of the test, to rule out the influence of endogenous oestrogens. After a phase of 6 to 10 days, the test substances are administered s.c. on 3 consecutive days (d1-d3) in combination with a substitution dose of 1.5 μg/kg/day 17β-estradiol. 17β-estradiol alone serves as positive control, and the excipients serve as negative control. On day 4 (d4) the animals are killed, and the uteri and vaginae are removed and weighed. The organ weights are converted to mg/100 g body weight, then the mean value and the standard deviation are calculated for each dosage. The inhibition of uterus growth induced by 17β-estradiol is shown as percentage inhibition.
Compound,pIC50 [1],inhibition in vivo at 0.3 mg/kg [2] [%]
"CN(CCCCCCC1=C(c2ccc(F)c(F)c2)CCCc2cc(O)ccc21)CCCCS(=O)(=O)CCCC(F)(F)F [Example 45, 8-(3,4-Difluorophenyl)-9-[6-(methyl{4-[(4,4,4-trifluorobutyl)sulphonyl]butyl}amino)hexyl]-6,7-dihydro-5H-benzo[7]annulen-3-ol]",7.70,73
"CN(CCCCCCC1=C(c2ccc(F)cc2)CCCc2cc(O)ccc21)CCCCS(=O)(=O)CCCC(F)(F)F [Example 48, 8-(4-Fluorophenyl)-9-[6-(methyl{4-[(4,4,4-trifluorobutyl)sulphonyl]butyl}amino)hexyl]-6,7-dihydro-5H-benzo[7]annulen-3-ol]",7.77,79
"CN(CCCCCCC1=C(c2ccc(F)cc2)CCCc2cc(O)ccc21)CCCS(=O)(=O)CCC(F)(F)C(F)(F)F [Example 116, 8-(4-fluorophenyl)-9-[6-(methyl{3-[(3,3,4,4,4-pentafluorobutyl)sulphonyl]propyl}amino)hexyl]-6,7-dihydro-5H-benzo[7]annulen-3-ol]",7.47,15
"CN(CCCCCCC1=C(c2ccc(F)c(F)c2)CCCc2cc(O)ccc21)CCCS(=O)(=O)CCCC(F)(F)F [Example 23, 8-(3,4-Difluorophenyl)-9-[6-(methyl{3-[(4,4,4-trifluorobutyl)sulphonyl]propyl}amino)hexyl]-6,7-dihydro-5H-benzo[7]annulen-3-ol]",7.66,33
"CC(C)(O)CN(CCCCCCC1=C(c2ccc(F)c(F)c2)CCCc2cc(O)ccc21)CCCS(=O)(=O)CCC(F)(F)F [Example 27, 8-(3,4-Difluorophenyl)-9-{6-[(2-hydroxy-2-methylpropyl){3-[(3,3,3-trifluoropropyl)sulphonyl]propyl}amino]hexyl}-6,7-dihydro-5H-benzo[7]annulen-3-ol]",7.46,10
"CN(CCCCCCC1=C(c2ccc(F)c(F)c2)CCCc2cc(O)ccc21)CCCCS(=O)(=O)CCC(F)(F)F [Example 47, 8-(3,4-Difluorophenyl)-9-[6-(methyl{4-[(3,3,3-trifluoropropyl)sulphonyl]butyl}amino)hexyl]-6,7-dihydro-5H-benzo[7]annulen-3-ol]",7.59,–
"CN(CCCCCCC1=C(c2ccc(F)cc2)CCCc2cc(O)ccc21)CCCCS(=O)(=O)CCC(F)(F)C(F)(F)F [Example 75, 8-(4-Fluorophenyl)-9-[6-(methyl{4-[(3,3,4,4,4-pentafluorobutyl)sulphonyl]butyl}amino)hexyl]-6,7-dihydro-5H-benzo[7]annulen-3-ol]",7.96,–
"O=S(=O)(CCCN(CCCO)CCCCCCC1=C(c2ccc(F)cc2)CCCc2cc(O)ccc21)CCCC(F)(F)C(F)(F)F [Example 55, 8-(4-Fluorophenyl)-9-{6-[(3-hydroxypropyl){3-[(4,4,5,5,5-pentafluoropentyl)sulphonyl]propyl}amino]hexyl}-6,7-dihydro-5H-benzo[7]annulen-3-ol]",7.66,–
"O=S(=O)(CCCN(CCO)CCCCCCC1=C(c2ccc(F)cc2)CCCc2c1ccc(O)c2F)CCCC(F)(F)C(F)(F)F [Example 59, 4-Fluoro-8-(4-fluorophenyl)-9-{6-[(2-hydroxyethyl){3-[(4,4,5,5,5-pentafluoropentyl)sulphonyl]propyl}amino]hexyl}-6,7-dihydro-5H-benzo[7]annulen-3-ol]",7.80,–
"CN(CCCCCCC1=C(c2ccc(F)cc2)CCCc2c1ccc(O)c2F)CCCS(=O)(=O)CCC(F)(F)F [Example 37, 4-Fluoro-8-(4-fluorophenyl)-9-[6-(methyl{3-[(3,3,3-trifluoropropyl)sulphonyl]propyl}amino)hexyl]-6,7-dihydro-5H-benzo[7]annulen-3-ol]",7.28,–
"CC(C)(O)CN(CCCCCCC1=C(c2ccc(F)c(F)c2)CCCc2cc(O)ccc21)CCC[S+]([O-])CCCC(F)(F)C(F)(F)F (stereo not drawn) [Example 28, 8-(3,4-Difluorophenyl)-9-{6-[(2-hydroxy-2-methylpropyl){3-[(4,4,5,5,5-pentafluoropentyl)sulphinyl]propyl}amino]hexyl}-6,7-dihydro-5H-benzo[7]annulen-3-ol]",8.05,–
"O=S(=O)(CCCN(CCO)CCCCCCC1=C(c2ccc(F)cc2)CCCc2cc(O)c(F)cc21)CCCC(F)(F)F [Example 103, 2-Fluoro-8-(4-fluorophenyl)-9-{6-[(2-hydroxyethyl){3-[(4,4,4-trifluorobutyl)sulphonyl]propyl}amino]hexyl}-6,7-dihydro-5H-benzo[7]annulen-3-ol]",8.30,–
"CN(CCCCCC1=C(c2ccc(F)cc2)CCCc2cc(O)ccc21)CCCCS(=O)(=O)CCCC(F)(F)F [Example 49, 8-(4-Fluorophenyl)-9-[5-(methyl{4-[(4,4,4-trifluorobutyl)sulphonyl]butyl}amino)pentyl]-6,7-dihydro-5H-benzo[7]annulen-3-ol]",6.74,–
"O=S(=O)(CCCN(CCO)CCCCCCC1=C(c2ccc(F)cc2)CCCc2cc(O)ccc21)CCCC(F)(F)C(F)(F)F [Example 54, 8-(4-Fluorophenyl)-9-{6-[(2-hydroxyethyl){3-[(4,4,5,5,5-pentafluoropentyl)sulphonyl]propyl}amino]hexyl}-6,7-dihydro-5H-benzo[7]annulen-3-ol]",7.57,–
"CN(CCCCCCC1=C(c2cc(F)cc(F)c2)CCCc2cc(O)ccc21)CCCC[S+]([O-])CCCC(F)(F)C(F)(F)F (stereo not drawn) [Example 4, 8-(3,5-Difluorophenyl)-9-[6-(methyl{4-[(4,4,5,5,5-pentafluoropentyl)sulphinyl]butyl}amino)hexyl]-6,7-dihydro-5H-benzo[7]annulen-3-ol]",8.22,–
"COCCN(CCCCCCC1=C(c2ccc(F)cc2)CCCc2c1ccc(O)c2F)CCCS(=O)(=O)CCCC(F)(F)C(F)(F)F [Example 40, 4-Fluoro-8-(4-fluorophenyl)-9-{6-[(2-methoxyethyl){3-[(4,4,5,5,5-pentafluoropentyl)sulphonyl]propyl}amino]hexyl}-6,7-dihydro-5H-benzo[7]annulen-3-ol]",6.77,–
"O=S(=O)(CCCNCCCCCCC1=C(c2ccc(F)cc2)CCCc2cc(O)ccc21)CCCC(F)(F)C(F)(F)F [Example 113, 8-(4-Fluorophenyl)-9-[6-({3-[(4,4,5,5,5-pentafluoropentyl)sulphonyl]propyl}amino)hexyl]-6,7-dihydro-5H-benzo[7]annulen-3-ol]",7.74,–
"N#CCN(CCCCCCC1=C(c2ccc(F)cc2)CCCc2cc(O)ccc21)CCCS(=O)(=O)CCCCC(F)(F)F [Example 141, ({6-[8-(4-Fluorophenyl)-3-hydroxy-6,7-dihydro-5H-benzo[7]annulen-9-yl]hexyl}{3-[(5,5,5-trifluoropentyl)sulphonyl]propyl}amino)acetonitrile]",7.68,–
"CN(CCCCCCC1=C(c2cc(F)cc(F)c2)CCCc2cc(O)ccc21)CCCS(=O)(=O)CCCCC(F)(F)F [Example 70, 8-(3,5-Difluorophenyl)-9-[6-(methyl{3-[(5,5,5-trifluoropentyl)sulphonyl]propyl}amino)hexyl]-6,7-dihydro-5H-benzo[7]annulen-3-ol]",7.74,–
"CN(CCCCCCC1=C(c2ccc(F)cc2)CCCc2cc(O)c(F)cc21)CCCS(=O)(=O)CCCCC(F)(F)F [Example 102, 2-Fluoro-8-(4-fluorophenyl)-9-[6-(methyl{3-[(5,5,5-trifluoropentyl)sulphonyl]propyl}amino)hexyl]-6,7-dihydro-5H-benzo[7]annulen-3-ol]",8.00,–
"CC(C)(O)CN(CCCCCCC1=C(c2cc(F)cc(F)c2)CCCc2cc(O)ccc21)CCC[S+]([O-])CCC(F)(F)F (stereo not drawn) [Example 10, 8-(3,5-Difluorophenyl)-9-{6-[(2-hydroxy-2-methylpropyl){3-[(3,3,3-trifluoropropyl)sulphinyl]propyl}amino]hexyl}-6,7-dihydro-5H-benzo[7]annulen-3-ol]",7.42,–
"CN(CCCCCCC1=C(c2ccc(F)cc2F)CCCc2cc(O)ccc21)CCCS(=O)(=O)CCCCCC(F)(F)F [Example 135, 8-(2,4-Difluorophenyl)-9-[6-(methyl{3-[(6,6,6-trifluorohexyl)sulphonyl]propyl}amino)hexyl]-6,7-dihydro-5H-benzo[7]annulen-3-ol]",8.30,–
